# In patent US20200315171A1, “PSYLLID PHEROMONE COMPOSITIONS” (The Regents of the University of California, priority 2017, published 2020):
# Entries after “also recorded” stand apart in the source; their conditions may differ.
# Key:
# [1] = SPME analysis of volatiles from lures matured under field conditions; type: physicochemical; settings: lures matured for 5 weeks under field conditions vs new lures
# Experimental: Injections were operated in splitless mode with an injector temperature of 250° C. The GC ovens were programmed from 40° C. for 1 min, increased to 300° C. at 10° C./min (held for 50 min). MS transfer line, manifold, and trap were set at 300° C., 50° C., and 217° C., respectively. Quantitative analyses were done on a Shimadzu GC-2010 gas chromatograph equipped with a flame ionization detector (Shimadzu Corp., Kyoto, Japan) and fitted with an HP5-MS capillary column (30 m×0.25 mm i.d.×[…]; Agilent Scientific, Santa Clara, Calif., USA). SPME analyses were done with a 50/30 divinylbenzene (DVB)/carboxen (CAR)/polydimethylsiloxane (PDMS) (Supelco, catalogue number 57328-U). Volatile compounds were collected from the headspace of the samples placed in a closed glass container with a rubber septum on the top. Both laboratories used the same oven temperature program, i.e., starting at 35° C. for 5 min, raising to 70° C. at a rate of 2.5° C./min, then increasing to 150° C. at 5° C./min, and subsequently raising to the final temperature of 250° C. at 20° C./min.
# D. citri adults [2] = assay: Field tests with transparent traps baited with aged lignoceryl acetate lures; type: in vivo, Diaphorina citri
# Experimental: Field Experiment 2: Evaluation of aged lignoceryl acetate lures. Lures were prepared and kept in greenhouses for 28 days prior to being fixed in yellow stick cards in the field. Thus, aged lures were tested in the field starting on day 28 until 70 days after preparation of the lures. The area, experimental design, number of traps, and data collection were the same as described above.
# Field Experiment 3: Evaluation of lignoceryl acetate lures using transparent traps. To avoid interference from the yellow visual cues from the stick cards, these experiments were performed with transparent acrylic traps (30 cm in length×10 cm in width) and covered with an adhesive glue film (Biostop Cola, Biocontrole, São Paulo, Brazil). The experimental design, number of traps, and data collection were the same as described above.
# (§1) Statistical analyses. […] Each pair of a test and a control in indoor behavioral measurements using an Y-olfactometer or 4-way olfactometer, as well in field tests comparing only a single treatment and a control, was compared by using two-tailed, Wilcoxon matched-pairs signed rank test.
# D. citri adults [3] = assay: Field tests with baited yellow sticky traps in a citrus grove; type: in vivo, Diaphorina citri; settings: for Males caught: higher-dose field experiment, n=48 per trap
# Experimental: Field Experiment 1: Evaluation of lignoceryl acetate, lygnocerol, formic acid, acetic acid, and propionic acid. These experiments were performed in an organic grove of Valencia sweet orange [Citrus sinensis (L.) Osbeck] grafted on ‘Rangpur’ lime (Citrus limonia Osbeck) with natural infestation of D. citri. For this purpose, yellow stick cards (30 cm in length×10 cm in width) with a 2 cm in diameter central hole were used to assess the attractivity of the test compounds to D. citri adults. Compounds were assessed at doses ranging from 0.01 μg to 100 μg. Hexane was used as a control. Tested compounds were incorporated into slow-release devices made of ES fiber (Ethylene-Propylene Side by Side, Chiso Co. Ltd, Japan). The experiments were designed in Latin square using 16 traps spaced 25 m from each other (4 traps per treatment). They were repeated three times over time and the number of captured ACP adults was recorded each 7 days for 49 days.
# as §1
# [4] = tested on: 7-day-old virgin D. citri males; assay: Y-olfactometer behavioral assay, virgin males as responders; type: in vivo, Diaphorina citri
# Experimental: (§2) Indoor behavioral assays. All behavioral assays were conducted in a climate-controlled room (see above). A glass tube in a Y-shape (central tube 15 cm in length and 3 cm in diameter split into two tubes in a 120° angle with the same dimensions used in the central tube) was placed vertically with the decision arms pointing towards the ceiling (light sources). All connections were made with 0.635-diameter polytetrafluoroethylene (PTFE) tubes (Sigma-Aldrich, Bellefonte, Pa., USA). Clean air was provided by an oil-free air compressor (Schulz MSV6, Schulz, Joinville, SC, Brazil) and humidified into milliQ water before the line was split into two separate lines, each one with an air flowmeter with a range from 0.1 to 1.0 L/min (Brooks Instrument, Hatfield, Pa. USA) to allow balanced flow of […]. […] Insects that crossed the central tube line located 5 cm from the bifurcation within the observation time of 5 min were recorded as responders. […]
# (§3) Statistical analyses. […] Field tests with multiple comparison (different doses) were analyzed by ANOVA. Capture data were first transformed into log (x+1) and them means were analyzed by Dunnett's test as well as Tukey's test (P<0.05) by comparing the mean of each column with the mean of the control or with the mean of every other group, respectively.
# [5] = tested on: 7-day-old virgin D. citri females; settings: acetic acid 0.01 μL/μL hexane, 100 μL
# Excerpt: (§4) An air-flow olfactometer, also known as “4-arm olfactometer” or “4-way olfactometer” was constructed^29 (30.0×30.0×2.5 cm in length, width and height, respectively) with acrylic. A constant, charcoal-filtered humidified airflow 0.1 L/min was connected to each odor source, and all airflows converged through individual PTFE tubes to the center of the acrylic arena. Yellow fields were made by adding a yellow laser jet printed-paper below the bottom of the arena with the following color spaces: lightness (84.8±0.04), chroma (98.7±0.40), and hue angle (95.7±0.02) using a colorimeter Minolta CR400 (Konica Minolta Co., Osaka, Japan).^34 Two of the four possible arms received volatiles from acetic acid 0.01 μL/μL hexane (100 μL), whereas the other two remaining received hexane. The psyllids (virgin 7-day-old males or females) were released on the center of the arena. An olfactometer test consisted of the release of a single D. citri and the observation (from 15:00 to 18:00). As a criterion for data collection from each insect, five minutes were allowed for response (first choice). In case of response, 10 minutes were allowed to observe the time spent in each of the four odor fields.
# (§5) Statistical analyses. All statistical analyses were done with Prism 7 (GrapPad, La Jolla, Calif.). Each pair of a test and a control in indoor behavioral measurements using an Y-olfactometer or 4-way olfactometer, as well in field tests comparing only a single treatment and a control, was compared by using two-tailed, Wilcoxon matched-pairs signed rank test. Field tests with multiple comparison (different doses) were analyzed by ANOVA. Capture data were first transformed into log (x+1) and them means were analyzed by Dunnett's test as well as Tukey's test (P<0.05) by comparing the mean of each column with the mean of the control or with the mean of every other group, respectively.
# [6] = tested on: 7-day-old virgin D. citri males; settings: acetic acid 0.01 μL/μL hexane, 100 μL
# Excerpt: as §4, §5
# [7] = tested on: 7-day-old virgin D. citri females; settings: acetic acid 0.01 μL/μL hexane, 100 μL; remark: listed apart in the source
# Experimental: as §2, §3
# ACP female antennae = assay: Electroantennogram (EAG) responses of ACP female antennae to acids; set-up: species or system Diaphorina citri; settings: source dose 10^−1
# Experimental: (§6) Electrophysiology. Antennas were mounted, according to a published protocol^26, under a stereoscopic microscope (SZT, BEL Engineering, MB, Italy). Antennae were connected with glass microcapillaries pulled with a PC-10 puller (Narishige, Kanto, Japan). The glass capillaries housed 0.39 mm gold wires (Sigmund Cohn Corp, Mt. Vernon, N.Y.) and were filled with a saline solution (3.7 g NaCl, 0.175 g KCl, 0.17 g CaCl2 in 500 mL of distilled water). Electrodes were connected to a Universal Probe, gain 10× (Syntech, Buchenbach, Germany) and connected to a 2-Chanel IDAC Acquisition Controller (Syntech). The signal was processed with Syntech software (GcEad version 4.6). Two Pasteur pipettes were used one for a flow balance and the other as a stimulus. The stimulus was loaded on a filter paper strip (40×4-mm), which was inserted in the stimulus pipette after evaporation for 1 min. Each cartridge was used only once. The antennal preparation was set at the end of an effluent flow tube, which had two lateral holes (13 cm from the antennal preparations) to accommodate the tips of the Pasteur pipettes (stimulus and flow balance). Humidified continuous flow (0.1 L/min) was generated by a CS-55 Stimulus Controller (Syntech). Flow for stimulus and balance were set at 1 L/min. Stimulus duration was set a 1 s. There was a minimal interval of 1 min between stimuli.
# ACP male antennae = assay: Electroantennogram (EAG) responses of ACP male antennae to C1-C6 acids; set-up: species or system Diaphorina citri
# Experimental: as §6
# [8] = tested on: olfactory receptor neurons in ACP antennae; settings: reported in reference 28; cited from earlier work
# [9] = yellow sticky traps baited with 0.1 μg
# [10] = yellow sticky traps baited with 1 μg
# [11] = yellow sticky traps baited with 10 μg
smiles,measurement,setting,value
"CCCCCCCCCCCCCCCCCCCCCCCCOC(C)=O [24Ac, tetracosyl acetate]",Degradation of lure: volatiles detected by SPME,[1],small amounts of acetic acid in aged but not in new lures
same,Lure activity,"D. citri adults [2]; aged lures, after 3 weeks in field",lost all activity
same,Males collected vs control traps,"D. citri adults [2]; lures aged for 35 days, first week in field",collected significantly more males than control traps
same,Lure activity after 42 days,"D. citri adults [3]; 1 μg per trap, after 42 days",lost activity
same,Captures in baited traps vs control traps,"D. citri adults [3]; 1 μg per trap, at 35 and 42 days",significantly more males were captured
same,Captures in baited traps vs control traps,"D. citri adults [3]; 1, 10 and 100 μg per trap, first weeks of the experiments",not significantly different
same,Captures in baited traps vs control traps,"D. citri adults [3]; 1.0, 10 and 100 μg, 35 and 42 days after onset",a significant difference was observed; also recorded: significantly higher than captures in control traps
same,Preference of virgin males for treatment vs control in olfactometer,"[4]; 0.1 to 100 μg as odor source, P=0.2031-0.9999",did not show any significant preference
"CCCCCCCCCCCCCCCCCCCCCCCCO [240H, lignocerol, reference compound]",Captures in treatment vs control traps,"D. citri adults [3]; doses from 0.1 to 100 μg, each week, Dunnett P=0.2770-0.9999, n=4 per dose per week",did not find significant differences
CC(=O)O [acetic acid],Female choice between treatment and control sides of 4-way olfactometer,[5],did not distinguish
same,Time spent by females on treatment vs control sides of 4-way olfactometer,[5],not significantly different
same,Time spent by males in treatment vs control fields of 4-way olfactometer,[6],spent significantly more time
same,Male preference for treatment fields vs control sides in 4-way olfactometer,[6]; first choice,highly significant
same,Female response to baited arm vs control side of Y-olfactometer,[7],did not differ significantly
same,EAG response,ACP female antennae,3.22±0.94 mV
same,EAG response,ACP male antennae; source dose 10^−1,2.70±0.36 mV
same,EAG response,ACP male antennae; source dose 10^−2,1.73±0.37 mV
same,EAG response,ACP male antennae; very low dose 10^−3,0.44±0.21 mV
same,Effect on responses from olfactory receptor neurons,[8],inhibit responses
same,"Captures vs control traps, preliminary field experiments",D. citri adults [3]; traps baited with 1 ug,captured significantly more ACP adults than control traps
same,Males caught,D. citri adults [3]; traps baited with 1 μg,2.48±0.25 males per trap per day
same,Males caught,D. citri adults [3]; traps baited with 10 μg,3.08±0.33 males per trap per day
same,Males caught,D. citri adults [3]; traps baited with 100 μg,4.23±0.35 males per trap per day
same,ACP adults captured,D. citri adults [3]; [9],7.42±0.35 D. citri per trap per week
same,ACP adults captured,D. citri adults [3]; [10],14.77±0.54 D. citri per trap per week
same,ACP adults captured,D. citri adults [3]; [11],9.52±0.50 D. citri per trap per week
same,Male attraction to treatment side vs control side of Y-olfactometer,"[4]; acetic acid 0.01 μL/μL hexane, 100 μL",significantly more attracted
CCCC(=O)O [butyric acid],EAG response,ACP male antennae; source dose 10^−1,0.52±0.36 mV
O=CO [formic acid],EAG response,ACP female antennae,1.86±0.48 mV
same,EAG response,ACP male antennae; source dose 10^−1,1.60±0.63 mV
same,EAG response,ACP male antennae; source dose 10^−2,0.42±0.37 mV
same,ACP adults captured,D. citri adults [3]; [9],2.59±0.30 D. citri per trap per week
same,ACP adults captured,D. citri adults [3]; [10],9.17±0.36 D. citri per trap per week
same,ACP adults captured,D. citri adults [3]; [11],7.14±0.34 D. citri per trap per week
"CCCCCC(=O)O [hexanoic acid, reference compound]",EAG response,ACP male antennae; source dose 10^−1,no response
CCC(=O)O [propionic acid],EAG response,ACP female antennae,2.90±1.09 mV
same,EAG response,ACP male antennae; source dose 10^−1,2.22±0.29 mV
same,EAG response,ACP male antennae; source dose 10^−2,1.13±0.47 mV
same,Effect on responses from olfactory receptor neurons,[8],inhibit responses
same,ACP adults captured,D. citri adults [3]; yellow sticky traps baited with 0.01 μg,9.52±0.52 D. citri per trap per week
same,ACP adults captured,D. citri adults [3]; [9],18.27±0.52 D. citri per trap per week
same,ACP adults captured,D. citri adults [3]; [10],13.79±0.53 D. citri per trap per week
CCCCC(=O)O [valeric acid],EAG response,ACP male antennae; source dose 10^−1,0.24±0.03 mV
